{"source": "patent US10493074B2", "about": "“Specific trifluoroethyl quinoline analogue for use in the treatment of Sjögren's syndrome” (UCB Biopharma SPRL, priority 2015, dated 2019)", "key": {"[1]": {"test_system": "TLO (tertiary lymphoid organ) associated genes", "experiment": "Quantitative RT-PCR of TLO associated genes in salivary glands, inducible murine model of ectopic lymphoid tissue formation (Sjögren's syndrome model)", "type": "in vivo, mice (C57BL/6)", "experimental": "Quantitative RT-PCR analysis of mRNA transcripts coding for indicated genes, normalised to housekeeping gene. The relative expression values presented as RQ were calibrated with day 0 post-cannulation salivary gland values.\n(§1) Compound (A) was assessed in the in vivo murine model of inducible ectopic lymphoid tissue formation described by M. Bombardieri et al. in J. Immunol., 2012, 189, 3767-3776, which is a recognised animal model of Sjögren's syndrome.\n(§2) Briefly, wild type (C57BL/6) mice were given replication-defective adenovirus 5 (AdV5) (10^8 p.f.u.) via retrograde cannulation of submandibular gland excretory ducts and sacrificed at specific time points post-cannulation. Compound (A), or vehicle control, was administered by gavage daily both prophylactically and therapeutically, starting at either day 0 or day 3 post-cannulation respectively. In order to assess immune cell status in isolated murine salivary glands, flow cytometry on single cell suspensions and quantitative real time PCR were used to evaluate protein and mRNA expression in the samples."}, "[2]": {"test_system": "T and B cells in cannulated salivary glands", "experiment": "FACS analysis of lymphocyte profile in salivary glands, inducible murine model of ectopic lymphoid tissue formation (Sjögren's syndrome model)", "type": "in vivo, mice (C57BL/6)", "conditions": "for number of T and B cells in cannulated salivary glands: day 15 post-cannulation, vs vehicle", "experimental": "N-{(R)-1-[8-Chloro-2-(1-oxypyridin-3-yl)quinolin-3-yl]-2,2,2-trifluoroethyl}-pyrido[3,2-d]pyrimidin-4-ylamine [hereinafter referred to as “Compound (A)”] was investigated in vivo in an inducible model of ectopic lymphoneogenesis in murine salivary glands that mimics Sjögren's syndrome. The results obtained are depicted in the accompanying drawings, in which:\nas §1, §2\nReplication-defective AdV5-infused salivary glands from mice dosed with either Compound (A) or vehicle were isolated from culled mice at different time points. Glands were dissected and placed in RPMI-1640 (with 2% FCS) (1 mL) on ice. Once all salivary glands were collected, RPMI-1640 was removed and replaced with enzyme mix (RMPI with 2% FCS, 0.8 mg/mL Dispase, 0.2 mg/mL Collagenase P, and 0.1 mg/mL DNase I) (2 mL). Salivary glands were cut into small pieces and tubes were incubated at 37° C. in a water bath, with magnetic stirrers. After 20 minutes, salivary gland fragments were very gently pipetted, using a 1 mL pipette, to disrupt the tissue further and release most cells. The mixture was replaced in the water bath and large fragments were allowed to settle for 30 s, after which time the enzyme mix was removed. […] Cells were filtered through 70 μm nylon mesh and counted using a haemocytometer. […]"}}}
{"smiles": "[O-][n+]1cccc(-c2nc3c(Cl)cccc3cc2[C@@H](Nc2ncnc3cccnc23)C(F)(F)F)c1", "note": "[Compound (A), N-{(R)-1-[8-Chloro-2-(1-oxypyridin-3-yl)quinolin-3-yl]-2,2,2-trifluoroethyl}-pyrido[3,2-d]pyrimidin-4-ylamine]", "values": [{"measurement": "gene expression profile of TLO associated genes", "setting": "[1]; treated prophylactically from day 0, day 15 post-cannulation, vs vehicle (FIGS. 3 & 4)", "result": "significantly inhibited"}, {"measurement": "gene expression profile of TLO associated genes", "setting": "[1]; treated therapeutically from day 3 post-cannulation, day 15 post-cannulation, vs vehicle (FIG. 4)", "result": "decrease was conserved"}, {"measurement": "disaggregation of the inflammatory foci and resolution of salivary gland inflammation", "setting": "[2]; dosed either prophylactically or therapeutically, overall conclusion from the model", "result": "effective"}, {"measurement": "number of T and B cells in cannulated salivary glands", "setting": "[2]; treated prophylactically from day 0, by gavage daily, flow cytometry (FIG. 1)", "result": "significant decrease"}, {"measurement": "number of T and B cells in cannulated salivary glands", "setting": "[2]; treated therapeutically from day 3 post-cannulation, by gavage daily, flow cytometry (FIG. 2)", "result": "significant decrease"}]}
